“Also recorded” adds a separate entry of the source. Like-named read-outs stand apart in the source and are kept apart here.
What was measured:
CH3/HeJ mice = assay: Mouse Tail Suspension Assay (Acute), TST; format: in vivo; details: p.o.; for ED50: Mus musculus, po, 7 min, 7-min session
Procedure: In the tail suspension test (TST) for evaluating compounds for anti-depressant activity, mice are suspended by their tails to a metal or plastic rod using clip or scotch tape. The test is usually quite short, 5-7 min, and the amount of time the mice spend immobile is recorded either manually or with an automated device. Agents which have antidepressant activity, decrease the duration of immobility of mice in this test.
The basic apparatus for the tail suspension assay consisted of a yellow plastic chamber (91×45×10 cm) divided for four arenas 25, 20, 20 and 25 cm wide separated by yellow plastic walls 0.75 cm thick. Mice were suspended by their tails using a rubber clip (7 cm long) attached to the plastic rod that was placed on the top of a testing chamber half way through its deep dimension. Each experimental session was videotaped and analyzed for four animals in the real time by computer software (“Depression Scan” Clever Sys Inc.). The computer justification of immobility was calibrated with the use of animals dosed with lorazepam while justification of movement was calibrated with the high dose of desipramine treated animals. Control, vehicle treated animals and animals treated with Compound #8 were analyzed under the calibrated settings. The settings were adjusted separately for dark (CH3/HeJ and C57Bl/6J strains) and white mice (Balb/cJ and A/J strains). A yellow background was used for dark mice and a blue background was used to record movements of white mice.
The ability of a test compound to decrease the duration of immobility, or increase mobility was measured using the TST procedure described above. Acute treatment with clinically effective antidepressants and/or novel compounds that have potential antidepressant properties decrease the duration of immobility and at the same time increases mobility in the TST.
Data were analyzed using GraphPad Prism software (GraphPad Software, Inc. San Diego, Calif.). For the comparison of the effect of different doses for various drugs on immobility in the TST one-way analyses of variance (ANOVA) were used followed by Dunnett's multiple comparison test. […] The ED50 and Emax values were compared using two-way ANOVA and Bonferroni post-hoc test.
Positive controls included duloxetine (DLX), venlafaxine (VLX)and desipramine (DMI) which were dissolved in 0.5% methylcellulose and lorazepam (LOR) which was suspended in 0.5% of methylcellulose in water by sonication. All drugs and vehicles were administered orally (p.o.) by gavage in a volume of 10 mL/kg.
The mice were ordered 5 weeks old and at the beginning of experiment their weight was 20±5 g. Animals were housed in groups of four in plastic cages at an ambient temperature of 21° C. to 23° C. with an automated 12/12 hours light/dark cycle and access to water and a commercial rodent food ad libitum.
Each experiment consisted of seven treatment groups with four animals per group. A total of 28 animals per experiment were used. Every two consecutive experiments (1 & 2, 3 & 4, 5 & 6 and 7 & 8) were exact replicas of each other. […] One treatment group of four animals in each experiment was a vehicle treated group. In addition to the vehicle treated group, the effects of DMI at 6 mg/kg, 12 mg/kg, 30 mg/kg, 60 mg/kg and 120 mg/kg and LOR at 5 mg/kg were tested in experiments 1 and 2. […] In experiments 5 and 6 the effects of DLX at 6 mg/kg, 12 mg/kg, 30 mg/kg, 60 mg/kg, 120 mg/kg and LOR at 5 mg/kg were tested. […]

Male Sprague Dawley rats = assay: Forced Swim Test (Acute), FST; format: in vivo; details: p.o.
Procedure: The Forced Swim test (FST) is a commonly used procedure to screen compounds for possible antidepressant properties. This test is also known as the behavioral despair test. Rodents placed in […] tanks filled with water present a wide variety of escape or immobility behaviors. Antidepressant drugs from different classes markedly increase escape behaviors and/or decrease latency or duration of immobility.
Venlafaxine and desipramine were dissolved in water. All drugs and their vehicles were administered orally (p.o.) by gavage in a volume of 5 mL/kg.
Male Sprague Dawley rats (140 to 160 g) from Charles River Laboratories Wilmington, Mass. were used. The animals went through a five-day quarantine period before being subjected to the experimental procedure.
Animals were housed in groups of four in plastic cages at an ambient temperature of 21° C. to 23° C. with an automated 12 hour light/dark cycle and access to water and commercial rodent food ad libitum. Animals were not handled more than for the routine bedding change prior to pre-test swim session.
Each experiment consisted of seven treatment groups with n=4 animals per group. A total of 28 animals per experiment were used. Two consecutive experiments (1 and 2, 3 and 4, and 5 and 6) were exact replicas of each other. […] One treatment group of n=4 animals in each experiment was a vehicle treated group. […] In experiments 5 and 6 the effects of venlafaxine and maprotyline at 12 mg/kg, 30 mg/kg, and 60 mg/kg were tested.
The basic apparatus consisted of a cylinder (46 cm tall×˜20 cm diameter) filled with water to 30 cm deep, at a temperature of 25±1° C. The automated version of the FST was used to perform the experiments. Plumbing for automatic filling and emptying water connected the four cylinders. Cylinders were placed in the dividing chambers 25 cm wide to separate animals visually. Each 5-minute experimental session was videotaped and analyzed in real time by computer software (Clever Systems, Inc.) for four animals at a time. The immobility, swimming, climbing and escape times were recorded by the software. The four activities are defined as follow. Immobility: the animal floats motionlessly or makes only those movements necessary to keep its head above water; Climb: the animal vigorously moves vertically while scratching the wall around the cylinder; Swim: the animal moves horizontally around in the cylinder more than necessary to keep its head above water; and Escape: sum of all vigorous active movements.
The ability of a test compound to decrease the duration or frequency of immobility, or changes in swimming, climbing and escape times, was measured using the FST procedure described above. […] The analysis of the results in the studies described was focused on the immobility time during 5-minute test session.
There were two swim sessions in each experiment. First, a pre-test swim session for 15 minutes was performed. Following 48 hours later was a test session of 5-minute duration. Upon completion of a swim session, each animal was placed under a heat lamp in a cage with soft bedding for approximately 15 minutes to prevent hypothermia.
Animals were pre-treated with a vehicle or test compound after completing the pre-test swim session, then 24 hours later and then shortly prior to the 5-minute test session; i.e., three injections were given to each animal between the two swim sessions that occurred on 3 consecutive days.
Data were analyzed using GraphPad Prism software (GraphPad Software, Inc. San Diego, Calif.). For the comparison of the effect of different doses for various drugs on immobility in the FST one-way ANOVA was used followed by Dunnett's multiple comparison test. […] The ED50 and Emax values were statistically compared using two-tail t-test.

NS(=O)(=O)NC[C@H]1COc2cc(Cl)ccc2O1 [Compound #8, (2S)-(−)-N-(6-Chloro-2,3-dihydro-benzo[1,4]dioxin-2-ylmethyl)-sulfamide]
ED50 (CH3/HeJ mice; read-out: Immobility ED50): 5.6 mg/kg | ED50 (CH3/HeJ mice; read-out: Mobility ED50): 3.6 ± 2.9 mg/kg | effect on immobility and mobility time in TST (CH3/HeJ mice; 7-min testing session): decreased immobility time and increased mobility time; also recorded: antidepressant-like activity | ED50 (Male Sprague Dawley rats; Rattus norvegicus, po, 5 min, three administrations, 5-minute test session, read-out: ED50 (immobility)): 5.6 ± 0.6 mg/kg | effect in the FST (immobility time) (Male Sprague Dawley rats; 5-minute testing session): antidepressant-like activity in the FST | Emax (immobility) (Male Sprague Dawley rats; immobility): 67.0 ± 11.6 s
